Measurements reported in PMC3163364, “Preformulation Studies of Zidovudine Derivatives: Acid Dissociation Constants, Differential Scanning Calorimetry, Thermogravimetry, X-Ray Powder Diffractometry and Aqueous Stability Studies” (Scientia Pharmaceutica, 2011).
Like-named read-outs stand apart in the source and are kept apart here. Blank lines part the entries; values can stand above or below the compound they belong to.

Assays:
[1] = pKa determination by differential scanning potentiometry (DSP); format: physicochemical
Experimental: In the differential scanning potentiometry (DSP) methodology, acid and basic groups generate negative and positive areas, respectively. Thus, the NH acidic groups of AZT and thymidine were used as reference to validate the DSP, since their pKa values had been previously reported.
A conventional pH-meter (GLP 21, Crison Instrument) with an Ag/AgCl-reference electrode was used. NaOH was added at 0.1 mL increments, with its corresponding pH value recorded from the average of two sample determinations using DMSO as the cosolvent (2.5 %) at 25 °C. The areas were calculated using the Origin 7 program. For the reference graph, an aliquot of 10 mL of HCl (0.1 mol L^−1) and 0.5 mL of DMSO was titrated with NaOH (0.1 mol L^−1); for the sample graphs, aliquots (10 mL) of HCl (0.1 mol L^−1), 0.5 mL DMSO and 0.12 mmol for each compound were titrated with NaOH (0.1 mol L^−1). The volume of each solution was completed to 20 mL with Milli-Q water before titration.

[2] = Differential Scanning Calorimetry (DSC) and Thermogravimetry (TG); format: physicochemical; conditions: for DSC exothermic decomposition peak: accompanied by weight loss in TG, nitrogen atmosphere, 25–300 °C; for glass transition, small DSC endothermic peak (T onset): extrapolated onset temperature
Experimental: Compounds 2, 4, 5 and 6 also presented an exothermic decomposition peak above 150 °C, which is accompanied by a weight loss in the respective TG curves (Figure 3).
(§1) DSC measurements were carried out using a 2920 modulated DSC (TA Instrument). The temperature axis and the cell constant of the DSC were calibrated with indium. Weighed samples (1.5–3 mg, C-33 Microbalance, Cahan) were scanned in covered aluminium (Al) pans under a dynamic dry nitrogen atmosphere (50 mL min^−1) starting at 25 °C and raising the temperature in 5 °C steps until reaching 300 °C. TG measurements were performed with a TA Instrument Hi-res TG 2950 (TA Instrument). Samples (1.5–3 mg) were weighed in Al pans, starting at 25 °C and raising the temperature in 5 °C steps until reaching 300 °C, under a dynamic dry nitrogen atmosphere (50 mL min^−1). The Universal Analysis Version 2.5H software was used for both measurements. The XRPD patterns were determined at around 20 °C using a diffractometer (Miniflex 2000, Rigaku), with CuKα radiation (λ= 1.5418 Å) being obtained by Ni-filtration. Each sample was packed into an Al holder in the range of 5–50 (2Θ).

[3] = aqueous stability in buffers of different pH at 60 °C, HPLC; format: physicochemical; set-up: key to Aqueous stability: Stable: degradation products by HPLC were not observed after 80 h of experiment; Unstable: The determination was not possible due to a rapid decomposition; conditions: for half-life at 0.5 mM: aqueous buffer, read-out: t½
Description: Table 2 lists the pH media, experimental rate constants (kobs, when it could be determined) and their corresponding half-life times (t½).
The aqueous stability of AZT and their derivatives 2–6 was examined at different pH values: pH 1.0 (hydrochloric acid-potassium chloride); pH 2.6 (citric acid-sodium phosphate monobasic); pH 7.4 (sodium phosphate dibasic); pH 9.4 (sodium hydrogen carbonate-sodium hydroxide) and pH 13.2 (potassium chloride-sodium hydroxide). The buffer concentrations were 0.1 mol L^−1 and the ionic strength (μ) of the buffers was adjusted to 0.1 with calculated amount of sodium chloride (NaCl). All buffer solutions were prepared with Milli Q water. The pH of each solution was determined using a GLP 21 (Crison Instruments) pHmeter. Stock solutions (5 × 10^−5 mol mL^−1) of each compound were prepared in DMSO prior to use, with 10 μL of the stock solution being added to 990 μL of buffer, and the vials placed in a water bath at 60 °C during all the experiment. Each vial was withdrawn at predetermined time intervals, and immediately stored at −18 °C until being used. For their analysis, the samples were left to defrost, and the aliquots of 100 μL were sampled and added to 400 μL of MeOH at 25 °C. Then, the solution was analyzed by HPLC to determine the rate of disappearance of each compound.
Samples were analyzed using an HPLC system Agilent® 1100 equipped with Phenomenex® column: Hypersil ODS 5 μ particle diameter (4.6 × 250 mm). Detection was carried out with an UV detector at λ = 267 nm, using the following three solvent systems as mobile phases with a flow rate of 1 mL min^−1 at 35 °C: A); 50% phosphate buffer (pH 7.5, 0.02 mol L^−1), 50% MeOH and 2% THF; B) 60% phosphate buffer (pH 7.5, 0.02 mol L^−1), 40% MeOH and 2% THF; and; C) 65% phosphate buffer (pH 7.5, 0.02 mol L^−1), 35% MeOH and 2% THF to obtain an adequate peak separation.

[4] = X-Ray Powder Diffractometry (XRPD); format: physicochemical; conditions: around 20 °C, CuKα radiation
Experimental: XRPD analysis provides an accurate identification of crystalline and amorphous solid phases. The XRPD patterns of AZT and their derivatives 2–6 are depicted in Figure 4.
as §1

HIV = test system: HIV; set-up: method as in earlier work; conditions: previous in vitro studies; cited from earlier work
[5] = set-up: method as in earlier work; conditions: cited from earlier work
[6] = set-up: method as in earlier work; conditions: cited from earlier work; remark: listed apart in the source
[7] = cited from earlier work
[8] = aqueous HCl solution with DMSO cosolvent, titrated with NaOH, DSP, DMSO 2.5 % cosolvent, 25 °C, calculated from area with eq. 2, read-out: pKa, NH group of the pyrimidinic base, experimental value
[9] = aqueous HCl solution with DMSO cosolvent, titrated with NaOH, DSP, DMSO 2.5 % cosolvent, 25 °C, calculated from area with eq. 2, read-out: pKa, aliphatic amine, experimental value

pKa ([1]; pKa, NH group of the pyrimidinic base, experimental value): 9.45
SMILES: Cc1cn([C@H]2C[C@H](O)[C@@H](CO)O2)c(=O)[nH]c1=O [Thymidine, reference compound]

DSC exothermic decomposition peak [2]: above 150 °C | half-life at 0.5 mM ([3]; pH 13.2, 60 °C): 11.2 h | Aqueous stability ([3]; pH 1.0, 60 °C): Stable^a | Aqueous stability ([3]; pH 7.4, 60 °C): Stable^a | Aqueous stability ([3]; pH 9.4, 60 °C): Stable^a | Degradation rate constant, kobs ([3]; pH 13.2, 60 °C): 1.04 10^−3 min^−1 | kobs ([3]; pH 13.2, 60 °C): 0.00104 min⁻¹ | pKa [1, 8]: 8.61
SMILES: Cc1cn([C@H]2C[C@H](N=[N+]=[N-])[C@@H](COC(=O)N3CCCCC3)O2)c(=O)[nH]c1=O [compound 4]

SMILES: Cc1cn([C@H]2C[C@H](N=[N+]=[N-])[C@@H](COC(=O)NCCN3CCNCC3)O2)c(=O)[nH]c1=O [compound 6]
DSC exothermic decomposition peak [2]: above 150 °C | glass transition, small DSC endothermic peak (T onset) [2]: 42.5 °C | half-life at 0.5 mM ([3]; pH 13.2, 60 °C): 6.48 h | Aqueous stability ([3]; pH 1.0, 60 °C): Stable^a | Aqueous stability ([3]; pH 7.4, 60 °C): Stable^a | Aqueous stability ([3]; pH 9.4, 60 °C): Stable^a | Degradation rate constant, kobs ([3]; pH 13.2, 60 °C): 1.96 10^−3 min^−1 | kobs ([3]; pH 13.2, 60 °C): 0.00196 min⁻¹ | solid state by XRPD (crystalline or amorphous) [4]: amorphous | pKa [1, 9]: 9.03

DSC exothermic decomposition peak [2]: above 150 °C | half-life at 0.5 mM ([3]; pH 7.4, 60 °C): 12.1 h | half-life at 0.5 mM ([3]; pH 9.4, 60 °C): 0.775 h | half-life at 0.5 mM ([3]; pH 13.2, 60 °C): 0.765 h | Aqueous stability ([3]; pH 1.0, 60 °C): Stable^a | Degradation rate constant, kobs ([3]; pH 7.4, 60 °C): 0.94 10^−3 min^−1 | Degradation rate constant, kobs ([3]; pH 9.4, 60 °C): 14.9 10^−3 min^−1 | Degradation rate constant, kobs ([3]; pH 13.2, 60 °C): 15.1 10^−3 min^−1
SMILES: Cc1ccc(S(=O)(=O)OC[C@H]2O[C@@H](n3cc(C)c(=O)[nH]c3=O)C[C@@H]2N=[N+]=[N-])cc1 [compound 2]
anti-HIV activity (HIV): lacked the necessary activity | stability in rat plasma [5]: stable

DSC exothermic decomposition peak [2]: 215 °C | half-life at 0.5 mM ([3]; pH 1.0, 60 °C): 2.13 h | half-life at 0.5 mM ([3]; pH 7.4, 60 °C): 79.2 h | half-life at 0.5 mM ([3]; pH 9.4, 60 °C): 2.07 h | Degradation rate constant, kobs ([3]; pH 1.0, 60 °C): 5.43 10^−3 min^−1 | Degradation rate constant, kobs ([3]; pH 7.4, 60 °C): 0.15 10^−3 min^−1 | Degradation rate constant, kobs ([3]; pH 9.4, 60 °C): 5.58 10^−3 min^−1 | Aqueous stability ([3]; pH 13.2, 60 °C): Unstable^d
SMILES: Cc1cn2c(nc1=O)OC[C@H]1O[C@@H]2C[C@@H]1N=[N+]=[N-] [compound 3]
anti-HIV activity (HIV): anti-HIV activity | cytotoxicity [6]: no cytotoxicity | stability in rat plasma ([5]; 30 h of incubation at 37 °C): showed stability

SMILES: Cc1cn([C@H]2C[C@H](N=[N+]=[N-])[C@@H](CO)O2)c(=O)[nH]c1=O [compound 1, 3′-Azido-3′-deoxythymidine, reference compound]
Aqueous stability ([3]; pH 1.0, 60 °C): Stable^a | aqueous stability over the studied pH media, in words ([3]; pH 1.0–13.2): stable at the studied pH media | Aqueous stability ([3]; pH 7.4, 60 °C): Stable^a | Aqueous stability ([3]; pH 9.4, 60 °C): Stable^a | Aqueous stability ([3]; pH 13.2, 60 °C): Stable^a | pKa, NH acidic group, previously reported experimental value [7]: 9.68 | pKa ([1]; DSP, DMSO 2.5 % cosolvent, 25 °C, calculated from area with eq. 2, read-out: pKa, NH group of the pyrimidinic base, experimental value): 9.42

SMILES: CC[C@H]1OC(=O)[C@H](C)[C@@H](O[C@H]2C[C@@](C)(OC)[C@@H](O)[C@H](C)O2)[C@H](C)[C@@H](O[C@@H]2O[C@H](C)C[C@H](N(C)C)[C@H]2O)[C@](C)(O)C[C@@H](C)C(=O)[C@H](C)[C@@H](O)[C@]1(C)O [erytromycine]
pKa of compounds used for regression of DSP area vs pKa (eq. 2) ([7]; reference values, source not given): 8.80

SMILES: Cc1cn([C@H]2C[C@H](N=[N+]=[N-])[C@@H](COC(=O)N3CCNCC3)O2)c(=O)[nH]c1=O [compound 5]
DSC exothermic decomposition peak [2]: above 150 °C | glass transition, small DSC endothermic peak (T onset) [2]: 35.1 °C | half-life at 0.5 mM ([3]; pH 13.2, 60 °C): 3.97 h | Aqueous stability ([3]; pH 1.0, 60 °C): Stable^a | Aqueous stability ([3]; pH 7.4, 60 °C): Stable^a | Aqueous stability ([3]; pH 9.4, 60 °C): Stable^a | kobs ([3]; pH 13.2, 60 °C): 0.00323 min⁻¹ | solid state by XRPD (crystalline or amorphous) [4]: amorphous | pKa [1, 8]: 8.66 | pKa [1, 9]: 6.52
